The text below walks through data of paper PMC8400542, “Anti-Inflammatory, Antipyretic, and Analgesic Properties of Potamogeton perfoliatus Extract: In Vitro and In Vivo Study” (Molecules, 2021).

The test system of assay [1] is acetic acid-induced vascular permeability in mice. The assay can be described thus: Acetic acid-induced vascular permeability (Evans blue). Type of assay: in vivo, mouse. The settings on record: 20 mg/kg, p.o., compared to control mice. The method, then:
To study the effect of the extract on the vascular phase of inflammation, acetic acid-induced vascular permeability was performed as described previously by Sobeh et al.. […] One hour later, Evans blue (0.25% solution in normal saline, 0.2 mL) was injected in the tail vein. Acetic acid (0.6% in normal saline, 1 mL/100 g) was then injected after 30 min in the peritoneal cavity of the treated mice. The normal control was injected with normal saline only. Mice were euthanized 30 min later by cervical dislocation, the abdominal cavities were washed with 3 mL saline solution and the collected washings were then centrifuged at 3000 rpm for 10 min. The vascular permeability is proportional to the absorbance of Evans blue dye in the supernatant, which was measured at 610 nm using a plate reader (Biotek, Winooski, VT, USA).
Figure 3 (A) Results from P. perfoliatus extract on carrageenan-induced leukocyte migration into the peritoneal cavity in mice (total number × 10^6). […] (B) Results from P. perfoliatus extract on acetic acid-induced vascular permeability. Mice received different treatments 1 h before acetic acid (0.6%, i.p.) and Evans blue dye injections. The amount of dye extravasation into the abdominal cavity was quantified and used as an indicator of inflammation degree. […]

The subject of assay [2] is acetic acid-induced writhing in mice. The assay can be described thus: Acetic acid-induced abdominal writhing. The settings on record: 20 mg/kg, p.o. A general note: In writhing tests, fewer writhes than in controls are read as antinociception.
Experimental: The peripheral analgesic activity of the extract was evaluated by the acetic acid-induced writhing model in mice according to Sobeh et al. [3]. […] The number of writhes, manifested as extension of hind legs, constriction of abdomen, or turning of trunk was evaluated within 25 min. The reduction in the number of writhes as compared to the control group is indicative of the analgesic potential of the extract [3]. The percent inhibition of writhing was calculated using the following formula as previously reported [18]. % Analgesic activity = (mean writhing count (control-treatment)/mean writhing count (control)).
The data results were quantified at one-hour intervals after administration of either the extract (200 and 400 mg/kg, p.o.) or nalbuphine (10 mg/kg, p.o.).
In assay [3] the test system is carrageenan-induced leukocyte migration in mice. The assay can be described thus: Carrageenan-induced leukocyte migration into the peritoneal cavity. The settings on record: 20 mg/kg, p.o. Format: in vivo, mouse. The method, then:
Three hours later, the mice were euthanized, and each peritoneal cavity was washed with 3 mL of phosphate-buffered saline (PBS) containing 1 mM EDTA. The total leukocyte count was determined in each peritoneal cavity wash using a hemocytometer and presented as number of cells/mL [3].
Figure 3 (A) Results from P. perfoliatus extract on carrageenan-induced leukocyte migration into the peritoneal cavity in mice (total number × 10^6). […] (B) Results from P. perfoliatus extract on acetic acid-induced vascular permeability. Mice received different treatments 1 h before acetic acid (0.6%, i.p.) and Evans blue dye injections. The amount of dye extravasation into the abdominal cavity was quantified and used as an indicator of inflammation degree. The results are shown as means ± SEM (n = 5–6). * p < 0.05 compared to saline group. ^# p < 0.05 compared to control (carrageenan or acetic acid only treated group).

Another assay addresses 5-lipoxygenase (LOX). The assay can be described thus: Lipoxygenase inhibition, enzyme immunoassay kit. Type of assay: biochemical. The settings on record: mean ± SE. The method, then:
The in vitro enzymatic activities were determined, utilizing enzyme immunoassay kits (Cayman Chemical, Ann Arbor, MI, USA) following the manufacturer’s instructions and the study by Adellall et al..

The test system of assay [4] is carrageenan-induced leukocyte migration in mice. Particulars: cited from earlier work.
The nature of assay [5]: Total antioxidant capacity (TAC) ELISA kit assay. Particulars: mean ± SE. The method, then: The antioxidant potential of the extract was evaluated by determining its TAC using a TAC ELISA kit (MBS726896, my BioSource, Inc., San Diego, CA, USA) in accordance with the manufacturer’s instructions and compared to the standard antioxidant, ascorbic acid as previously described Sobeh et al..
Background: In an ELISA, binding on a coated surface is turned into a signal by an enzyme label.

Assay [6] has as its system carrageenan-induced paw edema in rats. The settings on record: 20 mg/kg, compared to the control group; cited from earlier work.
Assay [7] has as its system heat-induced nociceptive pain in mice. The assay can be described thus: Hot plate test (central antinociception). Particulars: 10 mg/kg. Background: Thermal pain tests record how soon the animal reacts.
Experimental: To investigate the possible central analgesic activity of the studied extract, the hot plate test was performed according to Sobeh et al. [3]. […] One hour later, each individual mouse was placed on a hot plate preheated at 55 ± 1 °C and observed for any response to the heat-induced nociceptive pain (licking the fore and hind paws, hind paw lifting, or jumping). […] The overall antinociceptive activity of the extract was estimated by calculating the area under the curve (AUC) for the latency responses at the stated time points using GraphPad Prism.
(B) Hot plate response latency (s) assay. (C) AUC of response latency shown in panel (B).
The subject of assay [8] is Brewer's yeast-induced pyrexia in mice. The assay can be described thus: Brewer's yeast-induced pyrexia. Format: in vivo, mouse. The settings on record: 150 mg/kg. The method, then:
Pyrexia in mice was induced as previously reported by Liu et al. with minor modifications. The animals’ initial rectum temperature was determined using a lubricated digital thermometer. Suspension of Brewer’s yeast was prepared in normal saline (30%) and injected subcutaneously behind the neck of the animal (1 mL/100 g). After 18 h, rectal temperatures of the mice were determined again (T0). […] Pyretic animals received P. perfoliatus extract (200, 400, and 600 mg/kg, orally), paracetamol (150 mg/kg), or vehicle. Rectal temperatures were measured at 30 min, 1, 2, 3 and 24 h following the different treatments.

As for `O=C(O)Cc1ccccc1Nc1c(Cl)cccc1Cl` [Diclofenac], in assay [1], the “inhibition of vascular permeability” value is 67%. For the same compound, in [2], the “reduction of the control writhes” value stood at 67%. Further, the “decrease of the number of leukocytes” value in assay [3] is recorded as 42%. In addition, the “LOX IC50” value at 5-lipoxygenase (LOX) came to 2.83 ± 0.07 µg/mL.

With `O=C(O)/C=C/c1ccc(O)c(O)c1` [caffeic acid], the “effect on leukocyte migration” value in assay [4] is recorded as “inhibited leukocyte migration”.

On to `O=C(/C=C/c1ccc(O)c(O)c1)O[C@@H]1C[C@](O)(C(=O)O)C[C@@H](O)[C@H]1O` [chlorogenic acid], for which, in [4], the “effect on leukocyte migration” value was “inhibited leukocyte migration”.

Turning to `O=C1O[C@H]([C@@H](O)CO)C(O)=C1O` [Ascorbic acid], in [5], the TAC is on record as 28.27 ± 1.83 U/L.

As for `O=C(O)c1ccc(O)cc1` [p-Hydroxybenzoic acid], the “effect on edema thickness” value in [6] was “significantly decreased the edema thickness”.

Regarding `Oc1ccc2c3c1O[C@H]1[C@@H](O)CC[C@@]4(O)[C@@H](C2)N(CC2CCC2)CC[C@]314` [nalbuphine], the “increase in AUC of thermal response latency vs control” value in assay [7] amounted to 154.7%.

Take `CC(=O)Nc1ccc(O)cc1` [Paracetamol]: the “Rectal Temperature Recorded Following Different Treatments” value in assay [8] (0.5 h) is 38.14 ± 0.19 °C; in assay [8] (1 h), 37.50 ± 0.31 °C; in assay [8] (2 h) it was 37.12 ± 0.29 °C; in assay [8] (3 h), 36.96 ± 0.24 °C; in assay [8] (24 h), 36.50 ± 0.22 °C. In assay [8] (18 h after yeast injection (T0, before treatment)), the “Rectal Temperature” value stood at 38.60 ± 0.18 °C.
